Results on two compounds are retold here after ChEMBL document CHEMBL1240381, “Spread of a chromosomal cefixime-resistant penA gene among different Neisseria gonorrhoeae lineages” (2010).

Holding throughout (format): functional
For assay [1], the system named is Neisseria gonorrhoeae. Description: Antimicrobial activity against Neisseria gonorrhoeae isolate NG9806 expressing chromosomal cefixime-resistant penA gene by agar dilution method. Background: In agar dilution, organisms are placed on agar that contains the substance at set levels.
For assay [2], the system named is Neisseria gonorrhoeae. Description: Antimicrobial activity against Neisseria gonorrhoeae isolate NG9811 expressing chromosomal cefixime-resistant penA gene by agar dilution method.
The test system of assay [3] is Neisseria gonorrhoeae. Description: Antimicrobial activity against Neisseria gonorrhoeae isolate NG9812 expressing chromosomal cefixime-resistant penA gene by agar dilution method.
The test system of assay [4] is Neisseria gonorrhoeae. Description: Antimicrobial activity against Neisseria gonorrhoeae isolate NG9911 expressing chromosomal cefixime-resistant penA gene by agar dilution method.
The test system of assay [5] is Neisseria gonorrhoeae. Description: Antimicrobial activity against Neisseria gonorrhoeae isolate NG9912 expressing chromosomal cefixime-resistant penA gene by agar dilution method.
For assay [6], the system named is Neisseria gonorrhoeae. Description: Antimicrobial activity against Neisseria gonorrhoeae isolate NG9913 expressing chromosomal cefixime-resistant penA gene by agar dilution method.
Assay [7] deals with Neisseria gonorrhoeae. Description: Antimicrobial activity against Neisseria gonorrhoeae isolate NG9914 expressing chromosomal cefixime-resistant penA gene by agar dilution method.
Assay [8] deals with Neisseria gonorrhoeae. Description: Antimicrobial activity against Neisseria gonorrhoeae isolate NG0002 expressing chromosomal cefixime-resistant penA gene by agar dilution method.
Assay [9] relates to Neisseria gonorrhoeae. Description: Antimicrobial activity against Neisseria gonorrhoeae isolate NG0003 expressing chromosomal cefixime-resistant penA gene by agar dilution method.
The test system of assay [10] is Neisseria gonorrhoeae. Description: Antimicrobial activity against Neisseria gonorrhoeae isolate NG0008 expressing chromosomal cefixime-resistant penA gene by agar dilution method.
Assay [11] relates to Neisseria gonorrhoeae. Description: Antimicrobial activity against Neisseria gonorrhoeae isolate NG0109 expressing chromosomal cefixime-resistant penA gene by agar dilution method.
In assay [12] the test system is Neisseria gonorrhoeae. Description: Antimicrobial activity against Neisseria gonorrhoeae isolate NG0110 expressing chromosomal cefixime-resistant penA gene by agar dilution method.
Assay [13] deals with Neisseria gonorrhoeae. Description: Antimicrobial activity against Neisseria gonorrhoeae isolate NG0111 expressing chromosomal cefixime-resistant penA gene by agar dilution method.
The subject of assay [14] is Neisseria gonorrhoeae. Description: Antimicrobial activity against Neisseria gonorrhoeae isolate NG0201 expressing chromosomal cefixime-resistant penA gene by agar dilution method.
Assay [15] deals with Neisseria gonorrhoeae. Description: Antimicrobial activity against Neisseria gonorrhoeae isolate NG0204 expressing chromosomal cefixime-resistant penA gene by agar dilution method.
In assay [16] the test system is Neisseria gonorrhoeae. Description: Antimicrobial activity against Neisseria gonorrhoeae isolate NG0205 expressing chromosomal cefixime-resistant penA gene by agar dilution method.
Assay [17] deals with Neisseria gonorrhoeae. Description: Antimicrobial activity against Neisseria gonorrhoeae isolate NG0206 expressing chromosomal cefixime-resistant penA gene by agar dilution method.
Assay [18] concerns Neisseria gonorrhoeae. Description: Antimicrobial activity against Neisseria gonorrhoeae isolate NG0207 expressing chromosomal cefixime-resistant penA gene by agar dilution method.
Assay [19] relates to Neisseria gonorrhoeae. Description: Antimicrobial activity against Neisseria gonorrhoeae isolate NG0303 expressing chromosomal cefixime-resistant penA gene by agar dilution method.
The subject of assay [20] is Neisseria gonorrhoeae. Description: Antimicrobial activity against Neisseria gonorrhoeae isolate NG0304 expressing chromosomal cefixime-resistant penA gene by agar dilution method.
The subject of assay [21] is Neisseria gonorrhoeae. Description: Antimicrobial activity against Neisseria gonorrhoeae isolate NG0311 expressing chromosomal cefixime-resistant penA gene by agar dilution method.
Assay [22] deals with Neisseria gonorrhoeae. Description: Antimicrobial activity against Neisseria gonorrhoeae isolate NG0312 expressing chromosomal cefixime-resistant penA gene by agar dilution method.
For assay [23], the system named is Neisseria gonorrhoeae. Description: Antimicrobial activity against Neisseria gonorrhoeae isolate NG0401 expressing chromosomal cefixime-resistant penA gene by agar dilution method.
In assay [24] the test system is Neisseria gonorrhoeae. Description: Antimicrobial activity against Neisseria gonorrhoeae isolate NG0404 expressing chromosomal cefixime-resistant penA gene by agar dilution method.
Assay [25] relates to Neisseria gonorrhoeae. Description: Antimicrobial activity against Neisseria gonorrhoeae isolate NG0410 expressing chromosomal cefixime-resistant penA gene by agar dilution method.
For assay [26], the system named is Neisseria gonorrhoeae. Description: Antimicrobial activity against Neisseria gonorrhoeae isolate NG0503 expressing chromosomal cefixime-resistant penA gene by agar dilution method.
Assay [27] has as its system Neisseria gonorrhoeae. Description: Antimicrobial activity against Neisseria gonorrhoeae isolate NG0508 expressing chromosomal cefixime-resistant penA gene by agar dilution method.
The subject of assay [28] is Neisseria gonorrhoeae. Description: Antimicrobial activity against Neisseria gonorrhoeae isolate NG0509 expressing chromosomal cefixime-resistant penA gene by agar dilution method.
The test system of assay [29] is Neisseria gonorrhoeae. Description: Antimicrobial activity against Neisseria gonorrhoeae isolate NG0511 expressing chromosomal cefixime-resistant penA gene by agar dilution method.
The subject of assay [30] is Neisseria gonorrhoeae. Description: Antimicrobial activity against Neisseria gonorrhoeae isolate NG0512 expressing chromosomal cefixime-resistant penA gene by agar dilution method.
The test system of assay [31] is Neisseria gonorrhoeae. Description: Antimicrobial activity against Neisseria gonorrhoeae isolate NG0513 expressing chromosomal cefixime-resistant penA gene by agar dilution method.
Assay [32] concerns Neisseria gonorrhoeae. Description: Antimicrobial activity against Neisseria gonorrhoeae isolate NG0514 expressing chromosomal cefixime-resistant penA gene by agar dilution method.
In assay [33] the test system is Neisseria gonorrhoeae. Description: Antimicrobial activity against Neisseria gonorrhoeae isolate NG0202 expressing chromosomal cefixime-resistant penA gene by agar dilution method.
Assay [34] has as its system Neisseria gonorrhoeae. Description: Antimicrobial activity against Neisseria gonorrhoeae isolate NG0402 expressing chromosomal cefixime-resistant penA gene by agar dilution method.
Assay [35] deals with Neisseria gonorrhoeae. Description: Antimicrobial activity against Neisseria gonorrhoeae isolate NGON03-079 expressing chromosomal cefixime-resistant penA gene by agar dilution method.
The subject of assay [36] is Neisseria gonorrhoeae. Description: Antimicrobial activity against Neisseria gonorrhoeae isolate NGON03-092 expressing chromosomal cefixime-resistant penA gene by agar dilution method.
In assay [37] the test system is Neisseria gonorrhoeae. Description: Antimicrobial activity against Neisseria gonorrhoeae isolate NGON03-115 expressing chromosomal cefixime-resistant penA gene by agar dilution method.
The test system of assay [38] is Neisseria gonorrhoeae. Description: Antimicrobial activity against Neisseria gonorrhoeae isolate NGON07-002 expressing chromosomal cefixime-resistant penA gene by agar dilution method.
Assay [39] concerns Neisseria gonorrhoeae. Description: Antimicrobial activity against Neisseria gonorrhoeae isolate NG0202 expressing chromosomal cefixime-resistant penA gene at 0.031 ug/ml after 16 hrs.
Assay [40] deals with Neisseria gonorrhoeae. Description: Antimicrobial activity against Neisseria gonorrhoeae isolate NG0003 expressing chromosomal cefixime-resistant penA gene at […] after 16 hrs.
Assay [41] concerns Neisseria gonorrhoeae. Description: Antimicrobial activity against Neisseria gonorrhoeae isolate NG0202 expressing chromosomal cefixime-resistant penA gene at 2 ug/ml after 16 hrs.
The subject of assay [42] is Neisseria gonorrhoeae. Description: Antimicrobial activity against Neisseria gonorrhoeae isolate NG0003 expressing chromosomal cefixime-resistant penA gene at 2 ug/ml after 16 hrs.

Molecules are shown by their SMILES. Converted amounts (≈) assume the structure as drawn. Some results are limits rather than exact numbers.

The term MIC denotes the lowest concentration found to suppress growth. Read a high MIC as a less susceptible organism. With `C=CC1=C(C(=O)O)N2C(=O)[C@@H](NC(=O)/C(=N\OCC(=O)O)c3csc(N)n3)[C@H]2SC1` [CEFIXIME], the MIC in assay [1], in assay [2], in [3], in [4], in assay [5] and in assay [6] was 0.25 µg/mL (≈ 0.551 µM) throughout. For the same compound, the MIC in [7], in [8], in [9], in [10], in assay [11] and in assay [12] was 0.25 µg/mL (≈ 0.551 µM) in each case. The MIC in [13], in assay [14], in [15], in [16], in assay [17] and in assay [18] was 0.25 µg/mL (≈ 0.551 µM) in each case. Besides, the MIC was 0.25 µg/mL (≈ 0.551 µM) in assay [19]; 1 µg/mL (≈ 2.21 µM) in assay [20]; 0.5 µg/mL (≈ 1.1 µM) in [21]; 0.5 µg/mL (≈ 1.1 µM) in [22]; 0.5 µg/mL (≈ 1.1 µM) in [23]; 0.5 µg/mL (≈ 1.1 µM) in assay [24]. The MIC came to 0.5 µg/mL (≈ 1.1 µM) in [25]; 0.25 µg/mL (≈ 0.551 µM) in assay [26]; 0.25 µg/mL (≈ 0.551 µM) in assay [27]; 0.25 µg/mL (≈ 0.551 µM) in [28]; 0.25 µg/mL (≈ 0.551 µM) in assay [29]; 0.25 µg/mL (≈ 0.551 µM) in assay [30]. Further, the MIC was 0.5 µg/mL (≈ 1.1 µM) in [31]; 0.25 µg/mL (≈ 0.551 µM) in assay [32]; 0.004 µg/mL (≈ 0.00882 µM) in [33]; 0.031 µg/mL (≈ 0.0684 µM) in assay [34]; 0.5 µg/mL (≈ 1.1 µM) in assay [35]; 0.25 µg/mL (≈ 0.551 µM) in assay [36]. The results for the MIC in [37] and in [38] were 0.5 µg/mL (≈ 1.1 µM) and 0.25 µg/mL (≈ 0.551 µM), respectively. The figures for the CFU in [39] and in [40] were under 10 mL⁻¹ and 1.01 ×10⁸ /ml, respectively.
Turning to `O=C(O)c1cn(C2CC2)c2cc(N3CCNCC3)c(F)cc2c1=O` [CIPROFLOXACIN], the results for the MIC in assay [9] and in [33] were 0.031 µg/mL (≈ 0.0936 µM) and 8 µg/mL (≈ 24.1 µM), respectively. The values for the CFU in [41] and in assay [42] were 0.71 ×10⁸ /ml and under 10 mL⁻¹, respectively.
